Experimental data as given in paper PMC7904550, “Application of grouping and read-across for the evaluation of parabens of different chain lengths with a particular focus on endocrine properties” (Archives of Toxicology, 2021).
Read-outs that look alike come from different tables or passages of the source. Marks after values point to notes of the source that are not given here.

Columns and labels:
[1] = Acid dissociation constant (pKa); type: physicochemical; conditions: OECD TG 112; read-out: pKa
Excerpt: (§1) Generally, these parabens have very similar physico-chemical properties.

[2] = tested on: rats; assay: Genetic toxicity in vivo (rats); parameters: species or system rat; conditions: in vivo OECD TG 478 overriding in vitro OECD TG 473
[3] = tested on: Wistar rats; assay: Reproductive toxicity screening combined with 28-day repeated dose toxicity study (OECD TG 422); type: in vivo, rat; conditions: for NOAEL, reproductive toxicity: OECD 422 v 2016, oral gavage
Excerpt: Healthy and specific pathogen-free male and female (non-pregnant and nulliparous) Wistar Crl: WI(Han) rats were obtained from Charles River Laboratories (Germany). […] Upon arrival at BSL BIOSERVICE, the animals underwent an acclimatisation period of at least 5 days, and they were approximately 15–16 weeks old at the onset of the treatment period.

[4] = tested on: oestrogen receptors; parameters: method as in Byford et al. 2002; conditions: ref Byford et al. 2002; cited from earlier work
[5] = tested on: mammalian cells; conditions: OECD 473 or 487; ref ECHA dissemination portal; cited from earlier work
[6] = tested on: Wistar rats; conditions: ref Food and Drug Research Laboratories 1972, cited from earlier work; for NOAEL, developmental toxicity: similar to OECD 414, conducted 1972, highest dose tested, GD 6–15
[7] = Octanol–water partition coefficient (Log Kow); type: physicochemical; conditions: mean; OECD TG 107 and OECD TG 117
Excerpt: as §1

[8] = tested on: rats; conditions: acute oral, rats, OECD 401; ref ECHA dissemination portal; cited from earlier work
[9] = tested on: rats; conditions: rat, in vivo; cited from earlier work
[10] = tested on: rats; conditions: rat, in vivo; cited from earlier work; remark: listed apart in the source
[11] = tested on: Wistar rats; conditions: ref Harlan 2012, cited from earlier work
[12] = tested on: rats; conditions: key studies Gazin et al. 2013, Pouliot 2013; ref SCCS 2013; EMA 2015; cited from earlier work

COC(=O)c1ccc(O)cc1 [Methyl paraben, Methyl 4-hydroxybenzoate]
pKa [1]: 8.4 | Overall WoE conclusion on genotoxicity [2]: [d] While methyl paraben exhibited in vitro clastogenicity with metabolic activation in an OECD TG 473 study, absence of in vivo clastogenicity in an OECD TG 478 study is overriding in the WoE evaluation so that the overall WoE conclusion is absence of genotoxicity | NOAEL, reproductive toxicity [3]: NOAEL: 1000 (OECD 422; v 2016) mg/kg body weight/day | NOAEL, reproductive toxicity ([3]; listed as methyl paraben): 1000 mg/kg body weight/day | Treatment-related effects in parental animals or pups ([3]; OECD TG 422): no treatment-related effects | Adrenals HP ([3]; P0, F1): NAE / NAE | Adrenals weight ([3]; P0, F1): NAE / NAE | Brain weight ([3]; P0, F1): NAE / NAE | Coagulating gland HP ([3]; P0, F1): NAE / NAE | Epididymis HP ([3]; P0, F1): NAE / NAE | Epididymis weight ([3]; P0, F1): NAE / NAE | Fertility ([3]; P0, F1): NAE / NAE | Foetal development ([3]; P0, F1): NAE / NAE | Gestation length ([3]; P0, F1): NAE / NAE | Litter size ([3]; P0, F1): NAE / NAE | Litter viability ([3]; P0, F1): NAE / NAE | Liver weight ([3]; P0, F1): NAE / NAE | Mammary gland HP; males ([3]; P0, F1): NAE / NAE | Nipple development ([3]; P0, F1): NAE / NAE | No. of implantations, corpora lutea ([3]; P0, F1): NAE / NAE | No. of live births ([3]; P0, F1): NAE / NAE | Oestrus cyclicity ([3]; P0, F1): NAE / NAE | Ovary HP ([3]; P0, F1): NAE / NAE | Ovary weight ([3]; P0, F1): NAE / NAE | Postimplantation loss ([3]; P0, F1): NAE / NAE | Pre-implantation loss ([3]; P0, F1): NAE / NAE | Presence of anomalies (external, visceral, skeletal) ([3]; P0, F1): NAE / NAE | Prostate HP ([3]; P0, F1): NAE / NAE | Prostate weight ([3]; P0, F1): NAE / NAE | Reproduction ([3]; P0, F1): NAE / NAE | Seminal vesicles HP ([3]; P0, F1): NAE / NAE | Seminal vesicles weight ([3]; P0, F1): NAE / NAE | Testis HP ([3]; P0, F1): NAE / NAE | Testis weight ([3]; P0, F1): NAE / NAE | Thyroid stimulating hormone level ([3]; P0, F1): NAE / NAE | Time to mating ([3]; P0, F1): NAE / NAE | Triiodothyronine / thyroxine level ([3]; P0, F1): NAE / NAE | Uterus HP (with cervix) ([3]; P0, F1): NAE / NAE | Uterus weight (with cervix) ([3]; P0, F1): NAE / NAE | Vagina HP ([3]; P0, F1): NAE / NAE | Vaginal smears ([3]; P0, F1): NAE / NAE | Rank of oestrogen receptor activation among shorter-chained parabens [4]: the least | Cytogenicity in mammalian cells classification [5]: Clastogenic with metabolic activation (OECD 473; 1987) [d] | NOAEL: No. of foetal deaths; viable foetuses ([6]; TG 414-like, highest dose): 550 mg/kg bw/day | No. of foetal deaths; viable foetuses ([6]; TG 414-like, up to 550 mg/kg bw/day): NAE / NAE | Triiodothyronine / thyroxine level ([6]; dams, TG 414-like, up to 550 mg/kg bw/day): NAE / NAE (dams) | NOAEL, developmental toxicity [6]: NOAEL: 550 (highest dose tested) (similar to OECD 414; conducted 1972) mg/kg body weight/day | NOAEL, developmental toxicity ([6]; listed as methyl paraben): 550 mg/kg body weight/day

CCCOC(=O)c1ccc(O)cc1 [Propyl paraben, Propyl 4-hydroxybenzoate]
Log Kow [7]: 2.8 (mean; OECD TG 107 and OECD TG 117) | LD50 [8]: > 5000 (OECD 401; 1982) mg/kg bw | Skin irritation/skin corrosion classification [9]: Not irritating (read-across) | Eye irritation/eye corrosion classification [10]: Not irritating [c] (OECD 437 and 405; 2012) | NOAEL ([11]; historical OECD TG 422 feeding study, 15,000 ppm, first-generation offspring): 1125 mg/kg bw/day | NOAEL ([11]; historical OECD TG 422 feeding study, 15,000 ppm, parental females before pairing): 1076 mg/kg bw/day | NOAEL ([11]; historical OECD TG 422 feeding study, 15,000 ppm, parental males before pairing): 981 mg/kg bw/day | NOAEL ([11]; historical OECD TG 422 feeding study, highest concentration tested): 15,000 ppm | NOAEL [12]: 1000 mg/kg bw/day
